The record followed here is the Kinase Knowledgebase extract (Sharma et al. 2016).

SMILES strings stand for the structures. ≈ marks a conversion by molar mass, not a printed value. Bounds are passed on as bounds.

For assay [1], the target named is EGFR (human) (UniProt P00533).
Assay [2] has as its target EGFR (human) (UniProt P00533). Particulars: hn5.
The target in another assay is EGFR (UniProt P00533).
The next assay concerns PIK3CG (murine). As to the kind of experiment: Inhibition of C5a-Mediated AKT Phosphorylation in Raw 264.7 Macrophages.
The target in another assay is EGFR (Balb/c mice) (UniProt P00533).
In assay [3] the target is MAPK14 (UniProt Q16539). As to the kind of experiment: p38 Inhibition Assay (in Vitro).
In another assay the target is CDK2 (human) (UniProt P24941). As to the kind of experiment: Enzyme Assay. The conditions noted are these: concentration not given here.
The target of another assay is ROCK2 (human) (UniProt O75116). The assay is described as follows: Inhibition of ROCK2 Kinase Activity. Particulars: concentration not given here.
The target in a further assay is EGFR (murine) (UniProt P00533). Particulars: f/l herc cells.
Assay [4] has as its target MAPK14 (UniProt Q16539). As to the kind of experiment: Inhibition of p38 Kinase Activity.
The target in a further assay is MAPK14 (human) (UniProt Q16539). As to the kind of experiment: p38-alpha Kinase Inhibition. Particulars: COS-1.
The target of assay [5] is MAPK14 (UniProt Q16539). The assay is described as follows: p38 Inhibition.

Sequence of MAPK14 (Q16539 whole entry, looked up): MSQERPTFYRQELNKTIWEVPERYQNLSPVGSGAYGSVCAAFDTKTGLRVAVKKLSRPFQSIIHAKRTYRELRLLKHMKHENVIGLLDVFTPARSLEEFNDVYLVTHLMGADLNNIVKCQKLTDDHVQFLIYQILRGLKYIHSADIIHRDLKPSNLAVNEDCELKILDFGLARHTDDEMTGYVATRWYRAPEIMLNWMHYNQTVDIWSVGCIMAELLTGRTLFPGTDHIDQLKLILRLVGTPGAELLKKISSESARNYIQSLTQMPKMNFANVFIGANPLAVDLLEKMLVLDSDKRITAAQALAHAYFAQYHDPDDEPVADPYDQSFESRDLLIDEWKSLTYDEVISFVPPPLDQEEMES
Sequence of EGFR (human) (P00533 whole entry, looked up): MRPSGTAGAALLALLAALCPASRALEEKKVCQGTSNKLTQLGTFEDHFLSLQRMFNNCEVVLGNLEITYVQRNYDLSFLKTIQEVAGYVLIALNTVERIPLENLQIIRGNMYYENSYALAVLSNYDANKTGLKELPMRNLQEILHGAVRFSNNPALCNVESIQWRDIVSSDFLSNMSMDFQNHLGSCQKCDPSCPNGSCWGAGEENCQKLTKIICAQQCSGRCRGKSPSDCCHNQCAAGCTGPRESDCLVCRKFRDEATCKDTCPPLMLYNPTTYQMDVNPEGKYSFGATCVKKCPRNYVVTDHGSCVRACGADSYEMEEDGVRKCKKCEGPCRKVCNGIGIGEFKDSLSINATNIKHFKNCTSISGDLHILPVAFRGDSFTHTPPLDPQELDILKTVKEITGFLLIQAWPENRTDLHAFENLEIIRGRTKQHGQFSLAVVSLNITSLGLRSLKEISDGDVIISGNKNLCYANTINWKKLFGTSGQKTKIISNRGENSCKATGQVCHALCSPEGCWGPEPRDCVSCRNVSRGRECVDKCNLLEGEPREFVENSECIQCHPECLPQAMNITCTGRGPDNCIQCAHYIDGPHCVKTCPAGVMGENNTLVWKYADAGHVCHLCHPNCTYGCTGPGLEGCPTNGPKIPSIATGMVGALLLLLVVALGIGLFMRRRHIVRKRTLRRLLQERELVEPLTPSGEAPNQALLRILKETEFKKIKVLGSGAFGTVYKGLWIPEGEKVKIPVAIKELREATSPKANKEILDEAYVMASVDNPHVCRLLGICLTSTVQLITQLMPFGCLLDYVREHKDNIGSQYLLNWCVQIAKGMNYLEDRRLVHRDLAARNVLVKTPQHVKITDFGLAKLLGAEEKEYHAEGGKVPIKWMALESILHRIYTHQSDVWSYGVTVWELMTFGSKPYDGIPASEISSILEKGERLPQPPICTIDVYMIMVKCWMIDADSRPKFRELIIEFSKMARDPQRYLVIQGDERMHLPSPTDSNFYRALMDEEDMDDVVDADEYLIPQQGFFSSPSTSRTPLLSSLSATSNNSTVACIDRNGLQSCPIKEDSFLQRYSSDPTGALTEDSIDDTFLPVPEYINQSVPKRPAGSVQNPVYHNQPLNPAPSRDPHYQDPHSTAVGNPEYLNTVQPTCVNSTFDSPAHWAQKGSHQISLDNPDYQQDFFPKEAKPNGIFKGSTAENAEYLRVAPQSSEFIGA
Sequence of EGFR (murine) (P00533 whole entry, looked up): as above
Sequence of EGFR (P00533 whole entry, looked up): as above
Sequence of MAPK14 (human) (Q16539 whole entry, looked up): as the sequence (Q16539 whole entry, looked up) above

Consider `OCCNCC1COc2cc3ncnc(Nc4cccc(Br)c4)c3cc2O1` (configuration not stated), for which the IC50 (usually the midpoint of a concentration-inhibition curve) against EGFR (human) [1] came to 0.022 mg/L (≈ 0.051 µM).

As for `CS(=O)(=O)NCCNCc1ccc(-c2cc3c(Nc4ccc(OCc5ccccc5)cc4)ncnc3cn2)o1`, the IC50 on EGFR (human) [2] turned out to be 0.72 µM.

In the case of `N#Cc1cnc2cc3c(cc2c1Nc1ccc(F)c(Cl)c1)N(C(=O)/C=C/CBr)CCO3.N#Cc1cnc2cc3c(cc2c1Nc1ccc(F)c(Cl)c1)N(C(=O)/C=C/CCl)CCO3`, the IC50 at EGFR was determined as 1 µM. In addition, the inhibition (as a rule, the drop in the measured response relative to a control, in per cent) against EGFR (concentration not given here) came to 29.9%.

Regarding `O=C1NC(=O)/C(=C/c2ccc3c(c2)OCO3)S1`, the inhibition in the assay with PIK3CG (murine) was found to be 100%.

For the compound `O=C1NC(=O)/C(=C/c2ccc3nsnc3c2)S1`, the inhibition with PIK3CG (murine) was 100%.

`Cc1ccc2ncnc(Nc3cccc(Cl)c3)c2c1`: the LD50 (as a rule, the dose expected to kill half of the subjects tested) in the assay with EGFR (Balb/c mice) is above 400 mg/kg.

As to `NC(=O)[C@H]1CCCN1Cc1ccc(-c2cc3c(Nc4ccc(OCc5ccccc5)cc4)ncnc3cn2)o1`, the IC50 on EGFR (human) [2] is 0.35 µM.

In the case of `N=C1NC(=O)/C(=C/c2ccc3nccnc3c2)S1`, the inhibition in the assay with PIK3CG (murine) was found to be 100%.

The compound `O=C(NCc1ccc(S(=O)(=O)N2CCN(c3ncccn3)CC2)s1)c1ccc(Cl)cc1` registered an IC50 on MAPK14 [3] above 30 µM.

`O=C(NCc1ccc(S(=O)(=O)N2CCC(n3nnc4ccccc43)CC2)s1)c1ccc(Cl)cc1`: the IC50 against MAPK14 [3] was above 30 µM. The inhibition is 1% against CDK2 (human) and -1% against ROCK2 (human).

Consider `O=C1NC(=O)/C(=C/c2ccc3ncnc(N4CCCCC4)c3c2)S1`, for which the inhibition with PIK3CG (murine) was determined as 100%.

With `CN(C)C(=O)[C@@H]1CCCN1Cc1ccc(-c2cc3c(Nc4ccc(OCc5ccccc5)cc4)ncnc3cn2)o1`, the IC50 against EGFR (human) [2] is 3.3 µM.

In turn, `CCOC(=O)CN1CCC[C@H]1COc1cc2c(Nc3cccc(Br)c3)ncnc2cc1OC` showed a half-maximal inhibitory concentration (IC50) with EGFR (murine) of 0.02 µM.

`OCc1ccc(-c2cc3c(Nc4ccc(OCc5ccccc5)cc4)ncnc3cn2)o1`: the IC50 on EGFR (human) [2] stood at 0.46 µM.

Consider `CN(C)CCCC(=O)N1CCOc2cc3ncc(C#N)c(Nc4ccc(F)c(Cl)c4)c3cc21`, for which, on EGFR, the IC50 came out at 0.2 µM.

Take `O=C(CCCNc1ncc(C(F)(F)F)cc1Cl)NNS(=O)(=O)c1ccc(CNC(=O)c2ccccc2O)s1`: at MAPK14 [4], the IC50 is above 30 µM.

`O=C(NCc1ccc(S(=O)(=O)N2CCC(C(=O)c3ccc(F)cc3F)CC2)s1)c1ccc(Cl)cc1`: at MAPK14 [3], the IC50 is above 30 µM.

`Cc1ccccc1Cc1ccc(Nc2ccc(F)cc2C)cc1Cl` registered a half-inhibitory concentration (IC50) against MAPK14 (human) above 100 µM.

For the compound `O=C(NCc1ccc(S(=O)(=O)N2CCC(Nc3cccc(S(=O)(=O)C(F)(F)F)c3)CC2)s1)c1ccc(Cl)cc1`, the IC50 at MAPK14 [3] was above 30 µM.

`NC(=O)c1cccn(Cc2ccc(S(=O)(=O)NNC(=O)CCCNc3ncc(C(F)(F)F)cc3Cl)s2)c1=O` gave an IC50 against MAPK14 [4] above 30 µM.

For the compound `CCOC(=O)CN(CCOc1cc2c(Nc3cccc(Br)c3)ncnc2cc1OC)CC(=O)OCC`, the IC50 with EGFR (murine) was 0.07 µM.

Consider `O=C(NCc1ccc(S(=O)(=O)NNC(=O)c2csc(COc3ccccc3Cl)n2)s1)c1ccc(Cl)cc1`, for which the IC50 against MAPK14 [5] and at MAPK14 [4] was above 30 µM throughout.

`COC(=O)CCC1CN(CC(=O)OC)CCN1CCOc1cc2c(Nc3cccc(Br)c3)ncnc2cc1OC` (configuration not stated): the concentration for half-maximal inhibition (IC50) with EGFR (murine) was determined as 0.077 µM.

On to `CN(C)CCCCN1CCOc2cc3ncc(C#N)c(Nc4ccc(F)c(Cl)c4)c3cc21`, for which the IC50 against EGFR came to 0.005 µM.

Compound `CN1CCN(CC2COc3cc4ncnc(Nc5cccc(Br)c5)c4cc3O2)CC1` (configuration not stated) gave an IC50 against EGFR (human) [1] of 0.058 mg/L (≈ 0.123 µM).

`O=C(NCc1ccc(S(=O)(=O)NNC(=O)c2csc(-c3ccc(C4SCCS4)cc3)n2)s1)c1ccc(Cl)cc1`: the IC50 at MAPK14 [5] and against MAPK14 [4] was above 30 µM each time.

`O=C(NCc1ccc(S(=O)(=O)N2CCN(C(=O)N3C=Cc4oncc4C3)CC2)s1)c1ccc(Cl)cc1`: the IC50 at MAPK14 [3] is above 30 µM.

With `CN(CC(N)=O)Cc1ccc(-c2cc3c(Nc4ccc(OCc5ccccc5)cc4)ncnc3cn2)o1`, the IC50 on EGFR (human) [2] was 0.35 µM.

As to `O=C(CCCNc1ncc(C(F)(F)F)cc1Cl)NNS(=O)(=O)c1ccc(CNC(=O)c2ccc(Cl)cc2)cc1`, the IC50 at MAPK14 [5] and against MAPK14 [4] was above 30 µM in each case.

`Brc1cccc(Nc2ncnc3cc4c(cc23)OC(CN2CCOCC2)CO4)c1` (configuration not stated) yielded an IC50 against EGFR (human) [1] of 0.046 mg/L (≈ 0.101 µM).

`OCCN(CCO)CC1COc2cc3ncnc(Nc4cccc(Br)c4)c3cc2O1` (configuration not stated): at EGFR (human) [1], the half-inhibitory concentration (IC50) was 0.021 mg/L (≈ 0.0442 µM).
